According to patent publication US20130079493A1, “Method for prepairing peptide inhibitors of a lipid-activated enzyme and peptides produced by same” (ESTAJA OY, priority 2010, published 2013):
Where no end group is shown, it is not given here.

Key:
[1] = biological target: T1, human phospholipase A2, content of tears (P14555) (Homo sapiens, UniProt P14555); assay: Activity of human tear phospholipase A2 towards C28-O-PHPM in the presence of peptide (pyrene monomer fluorescence); format: biochemical; details: 2 nM enzyme, 40 nM or 80 nM peptide; FIG. 2
T1 construct: Reaction mixture contained 2 nM of phospholipase of human tears; from tissue; host or cells: human tear fluid
T1 sequence (P14555 21-144): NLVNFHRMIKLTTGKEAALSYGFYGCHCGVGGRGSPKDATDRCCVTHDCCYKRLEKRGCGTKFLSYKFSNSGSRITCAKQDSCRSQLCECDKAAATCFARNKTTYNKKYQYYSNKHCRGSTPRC
Experimental: Activity of secretory phospholipase A2 (Apis mellifica) of class III towards C28—O—PHPM was measured in the presence of peptide KMYFNLI (SEQ ID NO:1). Reaction mixture contained 2 nM of phospholipase A2, 2 nM or 4 nM of the peptide and 1.25 μM C28—O—PHPM (1-octacosanyl-2-(6-pyren-1-yl)hexanoyl-sn-glycero-3-phosphatidylmethanol) in 2.0 ml of 5 mM HEPES, 0.1 mM EDTA, 1 mM CaCl2, pH 7.4 at 37° C. with stirring. The assay was performed with or without preincubation step. The enzymatic reaction was followed by measuring the pyrene monomer fluorescence intensity at 400 nm using a spectrofluorometer. Excitation wavelength was 343 nm and the excitation and emission slits were 10 nm.
Activity of human phospholipase A2, content of tears (P14555), was measured in the presence of peptide AALSYGFYG (SEQ ID NO:68). Reaction mixture contained 2 nM of phospholipase of human tears, 40 nM or 80 nM of the peptide and 1.25 μM C28—O—PHPM (1-octacosanyl-2-(6-pyren-1-yl)hexanoyl-sn-glycero-3-phosphatidylmethanol) in 2.0 ml of 5 mM HEPES, 0.1 mM EDTA, 1 mM CaCl2, pH 7.4 at 37° C. with stirring. The assay was performed with or without preincubation step. The enzymatic reaction was followed as described in Example 2.

[2] = biological target: secretory phospholipase A2 (Apis mellifica) of class III (Apis mellifera, UniProt P00630)
secretory phospholipase A2 (Apis mellifica) of class III, sequence (P00630 34-167 limits assumed): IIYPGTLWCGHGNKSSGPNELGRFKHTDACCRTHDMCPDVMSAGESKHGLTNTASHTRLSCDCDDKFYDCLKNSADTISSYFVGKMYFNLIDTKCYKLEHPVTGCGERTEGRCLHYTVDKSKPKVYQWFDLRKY

“AALSYGFYG (not fully specified (C-terminus); listed as Homo sapiens) [synthetic peptide corresponding to residues 17-25 of human secretory PLA2 present in tear fluid]” was tested. Which “inhibition of tear fluid PLA2 activity” value [1] did it give?
The value was “inhibited”.

What does the source list for KMYFNLI?
inhibition of bee venom PLA2 enzyme [2]: complete inhibition; peptide concentration at which inhibition was observed [2]: 2 nM
